# Patent US20190375708A1 (VenatoRx Pharmaceuticals, Inc., priority 2018, published 2019)
# Legend:
# [1] = system: HBV replication in HepAD38 cells; experiment: Anti-HBV replication assay in HepAD38 cells (QPCR of extracellular HBV DNA); type: cell-based, HBV (genotype D, serotype ayw); settings: Hepatitis B virus, 168 h, 7 days incubation, extracellular HBV DNA by QPCR, read-out: Anti-HBV EC50
# Method in brief: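 EC50 values reflect 50% reduction of extracellular HBV DNA, measured by QPCR after 7-day treatment of tetracycline-deprived HepAD38 cells with compound […].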
# [2] = In vitro cytotoxicity assay (MTT cell viability) in HepG2 cells; type: cell-based, human; settings: human
# Method in brief: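 CC50 values reflect loss of HepG2 viability after a 7-day exposure at 37 °C, 5% CO2. After 3-4 h with MTT, solubilized formazan was quantified at 492 nm relative to vehicle wells.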
SMILES,EC50 [1],CC50 at 7 days [2]
"Cc1cc(NC(=O)c2c(C)c(C(=O)C(=O)N[C@@H]3CC[C@H](O)[C@H]3O)n(C)c2C)ccc1F [Example 151, 5-(2-(((1R,2S,3S)-2,3-dihydroxycyclopentyl)amino)-2-oxoacetyl)-N-(4-fluoro-3-methylphenyl)-1,2,4-trimethyl-1H-pyrrole-3-carboxamide]",< 50 nM,> 30000 nM
"Cc1cc(NC(=O)c2c(C)c(C(=O)C(=O)NC3(C)CCN(c4ncccn4)CC3)n(C)c2C)ccc1F [Example 691, N-(4-fluoro-3-methylphenyl)-1,2,4-trimethyl-5-(2-((4-methyl-1-(pyrimidin-2-yl)piperidin-4-yl)amino)-2-oxoacetyl)-1H-pyrrole-3-carboxamide]",< 50 nM,> 30000 nM
"Cc1c(C(=O)Nc2cc(F)c(F)c(F)c2)c(Cl)c(C(=O)C(=O)NCC(C)(C)O)n1C [Example 372, 4-chloro-5-(2-((2-hydroxy-2-methylpropyl)amino)-2-oxoacetyl)-1,2-dimethyl-N-(3,4,5-trifluorophenyl)-1H-pyrrole-3-carboxamide]",< 50 nM,500 to 4990 nM
"Cc1cc(NC(=O)c2c(C)c(C(=O)C(=O)NC3CCS(=O)(=O)CC3)n(C)c2C)ccc1F [Example 249, 5-(2-((1,1-dioxidotetrahydro-2H-thiopyran-4-yl)amino)-2-oxoacetyl)-N-(4-fluoro-3-methylphenyl)-1,2,4-trimethyl-1H-pyrrole-3-carboxamide]",< 50 nM,5000 to 30000 nM
"Cc1nc(C2(NC(=O)C(=O)c3c(C)c(C(=O)Nc4ccc(F)c(C)c4)c(C)n3C)CCCC2)no1 [Example 158, N-(4-fluoro-3-methylphenyl)-1,2,4-trimethyl-5-(2-((1-(5-methyl-1,2,4-oxadiazol-3-yl)cyclopentyl)amino)-2-oxoacetyl)-1H-pyrrole--3 carboxamide]",< 50 nM,> 30000 nM
"Cc1c(C(=O)Nc2ccc(F)c(F)c2)c(C)n(C)c1C(=O)C(=O)Nc1ccccn1 [Example 294, N-(3,4-difluorophenyl)-1,2,4-trimethyl-5-(2-oxo-2-(pyridin-2-ylamino)acetyl)-1H-pyrrole-3-carboxamide]",500 to 1000 nM,> 30000 nM
"Cc1c(C(=O)Nc2ccc(F)c(F)c2)c2n(c1C(=O)C(=O)N[C@H]1COC[C@@H]1O)CCCC2 [Example 457, N-(3,4-difluorophenyl)-3-(2-(((3S,4R)-4-hydroxytetrahydrofuran-3-yl)amino)-2-oxoacetyl)-2-methyl-5,6,7,8-tettrahydroindolizine-1-carboxamide]",50 to 499 nM,> 30000 nM
"Cc1cc(NC(=O)c2c(Cl)c(C(=O)C(=O)NC(C)(C)C(F)(F)F)n3c2CCC3)cnc1F [Example 573, 6-chloro-N-(6-fluoro-5-methylpyridin-3-yl)-5-(2-oxo-2-((1,1,1-trifluoro-2-methylpropan-2-yl)amino)acetyl)-2,3-dihydro-1H-pyrrolizine-7-carboxamide]",50 to 499 nM,> 30000 nM
"CC(C)(C)NC(=O)C(=O)c1cc(C(=O)Nc2ccc(F)c(C#N)c2)c2n1CCCC2 [Example 392, 3-(2-(tert-butylamino)-2-oxoacetyl)-N-(3-cyano-4-fluorophenyl)-5,6,7,8-tetrahydroindolizine-1-carboxamide]",> 1000 nM,5000 to 30000 nM
"CC(C)(C)NC(=O)C(=O)c1cc(C(=O)Nc2ccc(F)c(Cl)c2)c2n1CCC2 [Example 535, 5-(2-(tert-butylamino)-2-oxoacetyl)-N-(3-chloro-4-fluorophenyl)-2,3-dihydro-1H-pyrrolizine-7-carboxamide]",< 50 nM,500 to 4990 nM
"Cc1cc(NC(=O)c2c(C)c(C(=O)C(=O)N[C@H]3CC[C@@](O)(C(F)(F)F)CC3)n(C)c2C)cnc1F [Example 205, N-(6-fluoro-5-methylpyridin-3-yl)-5-(2-(((1r,4r)-4-hydroxy-4-(trifluoromethyl)cyclohexyl)amino)-2-oxoacetyl)-1,2,4-trimethyl-1H-pyrrole-3-carboxamide]",< 50 nM,> 30000 nM
"Cc1cc(NC(=O)c2c(C)c(C(=O)C(=O)NC3(C)CCN(c4cccnn4)CC3)n(C)c2C)ccc1F [Example 728, N-(4-fluoro-3-methylphenyl)-1,2,4-trimethyl-5-(2-((4-methyl-1-(pyridazin-3-yl)piperidin-4-yl)amino)-2-oxoacetyl)-1H-pyrrole-3-carboxamide]",< 50 nM,> 30000 nM
"Cc1c(C(=O)Nc2cccc(C(F)F)c2)c(C)n(C)c1C(=O)C(=O)N[C@@H]1CCC[C@@H](O)C1 [Example 704, N-(3-(difluoromethyl)phenyl)-5-(2-(((1R,3R)-3-hydroxycyclohexyl)amino)-2-oxoacetyl)-1,2,4-trimethyl-1H-pyrrole-3-carboxamide]",< 50 nM,> 30000 nM
"Cc1cc(NC(=O)c2c(C)c(C(=O)C(=O)N[C@H]3CCCN(S(C)(=O)=O)C3)n(C)c2C)ccc1F [Example 642, (S)-N-(4-fluoro-3-methylphenyl)-1,2,4-trimethyl-5-(2-((1-(methylsulfonyl)piperidin-3-yl)amino)-2-oxoacetyl)-1H-pyrrole-3-carboxamide]",< 50 nM,5000 to 30000 nM
"Cc1c(C(=O)Nc2ncc(C(F)(F)F)s2)c2n(c1C(=O)C(=O)NC1(CO)CCC1)CCCC2 [Example 749, 3-(2-((1-(hydroxymethyl)cyclobutyl)amino)-2-oxoacetyl)-2-methyl-N-(5-(trifluoromethyl)thiazol-2-yl)-5,6,7,8-tetrahydroindolizine-1-carboxamide]",50 to 499 nM,> 30000 nM
"Cc1cc(NC(=O)c2c(C)c(C(=O)C(=O)N[C@@H](C(=O)NCCO)C(C)(C)C)n(C)c2C)ccc1F [Example 86, (R)-N-(4-fluoro-3-methylphenyl)-5-(2-((1-((2-hydroxyethyl)amino)-3,3-dimethyl-1-oxobutan-2-yl)amino)-2-oxoacteyl)-1,2,4-trimethyl-1H-pyrrole-3-carboxamide]",< 50 nM,5000 to 30000 nM
"Cc1c(C(=O)Nc2cccc(C(F)F)c2)c(C)n(C)c1C(=O)C(=O)N[C@H]1CC[C@@H](O)CC1 [Example 690, N-(3-(difluoromethyl)phenyl)-5-(2-(((1s,4s)-4-hydroxycylcohexyl)amino)-2-oxoacetyl)-1,2,4-trimethyl-1H-pyrrole-3-carboxamide]",< 50 nM,> 30000 nM
"Cc1cc(NC(=O)c2c(C)c(C(=O)C(=O)NC3(c4noc(C(F)F)n4)CCC3)n(C)c2C)cnc1F [Example 159, 5-(2-((1-(5-(difluoromethyl)-1,2,4-oxadiazol-3-yl)cyclobutyl)amino)-2-oxoacetyl)-N-(6-fluoro-5-methylpyridin-3-yl)-1,2,4-trimethyl-1H-pyrrole-3-carboxamide]",< 50 nM,> 30000 nM
"Cc1cc(NC(=O)c2c(C)c(C(=O)C(=O)N[C@@H]3CCNC3=O)n(C)c2C)ccc1F [Example 672, (R)-N-(4-fluoro-3-methylphenyl)-1,2,4-trimethyl-5-(2-oxo-2-((2-oxopyrrolidin-3-yl)amino)acetyl)-1H-pyrole-3-carboxamide]",< 50 nM,> 30000 nM
"Cc1c(C(=O)Nc2ncc(C(F)(F)F)s2)c2n(c1C(=O)C(=O)NC(C)(C)CO)CCCC2 [Example 757, 3-(2-((1-hydroxy-2-methylpropan-2-yl)amino)-2-oxoacetyl)-2-methyl-N-(5-(trifluoromethyl)thiazol-2-yl)-5,6,7,8-tetrahydroindolizine-1-carboxamide]",50 to 499 nM,> 30000 nM
"Cc1cc(NC(=O)c2c(C)c(C(=O)C(=O)N[C@H](CO)C(=O)O)n(C)c2C)ccc1F [Example 33, (2-(4-((4-fluoro-3-methylphenyl)carbamoyl)-1,3,5-trimethyl-1H-pyrrol-2-yl)-2-oxoacetyl)-D-serine]",> 1000 nM,> 30000 nM
"Cc1noc([C@H](C)NC(=O)C(=O)c2c(C)c(C(=O)Nc3ccc(F)c(Cl)c3)c3n2CCCC3)n1 [Example 446, (S)-N-(3-chloro-4-fluorophenyl)-2-methyl-3-(2-((1-(3-methyl-1,2,4-oxadiazol-5-yl)ethyl)amino)-2-oxoacetyl)-5,6,7,8-tetrahydroindolizine-1-carboxamide]",50 to 499 nM,5000 to 30000 nM
"Cc1cc(NC(=O)c2c(C)c(C(=O)C(=O)NC3(C)CCN(C(=O)c4ccnn4C)CC3)n(C)c2C)ccc1F [Example 692, N-(4-fluoro-3-methylphenyl)-1,2,4-trimethyl-5-(2-((4-methyl-1-(1-methyl-1H-pyrazole-5-carbonyl)piperidin-4-yl)amino)-2-oxoacetyl)-1H-pyrrole-3-carboxamide]",< 50 nM,> 30000 nM
Cc1cc(NC(=O)c2c(C)c(C(=O)C(=O)NC3CCN(c4nccs4)CC3)n(C)c2C)ccc1F [Example 656],< 50 nM,5000 to 30000 nM
"Cc1cc(NC(=O)c2c(C)c(C(=O)C(=O)N[C@H]3CC[C@H](O)CC3)n(CCF)c2C)ccc1F [Example 198, N-(4-fluoro-3-methylphenyl)-1-(2-fluoroethyl)-5-(2-(((1r,4r)-4-hydroxycyclohexyl)amino)-2-oxoacetyl)-2,4-dimethyl-1H-pyrrole-3-carboxamide]",50 to 499 nM,> 30000 nM
"Cc1cc(NC(=O)c2c(C)c(C(=O)C(=O)N[C@H]3CC[C@@H](O)C3)n(C)c2C)ccc1F [Example 245, N-(4-fluoro-3-methylphenyl)-5-(2-(((1S,3R)-3-hydroxycyclopentyl)amino)-2-oxoacetyl)-1,2,4-trimethyl-1H-pyrrole-3-carboxamide]",< 50 nM,> 30000 nM
